Experiments:
[1] = system: Rho/ROCK pathway; test: Real time PCR analysis of Rho/ROCK pathway gene expression; format: cell-based; conditions: rabbit joint capsule fibroblasts in collagen gels; 50 μg/mL blebbistatin; 0, 5, 24 and 48 hours; versus blank PLGA particle control
Procedure: Inhibition of Rho/ROCK pathway in RJCFs by blebbistatin nanoparticle was studied using quantitative real-time PCR (qPCR) Two groups of collagen gels were prepared in the same way as described in the collagen gel compaction assay. One group of gels (n=3) was treated with 2.5 mg of blebbistatin nanoparticles dispersed in 50 μL of DMEM so that the final concentration of blebbistatin was 50 μg/mL. The other control group gels (n=3) were also treated in the same way but instead with blank PLGA particles. Measurements were made at four terminal time points of 0, 5, 24 and 48 hours. After each time point the gels were washed twice with DMEM and stored at −80° C. for qPCR analysis.
Total cell RNA was extracted with an RNeasy Mini Kit (Qiagen, Valencia, Calif., USA), by following the manufacturer's protocol. Cells were then homogenized (QIAshredder column, Qiagen), and using an RNeasy column, total RNA was eluted out. The quantity and the quality of the isolated RNA were measured from the absorbance at A260 nm and the ratio of A260/A280 respectively. […] Steady-state mRNA levels were normalized to 18s rRNA and calculated relative to untreated controls by “the relative quantitation using comparative CT” in Multiplex Reactions (PerkinElmer).

[2] = system: rabbit joint capsule fibroblasts; test: Fluorescent microsphere displacement assay with time-lapse imaging; format: cell-based
Procedure: The effect of blebbistatin on cell ability to compact gels was analyzed by monitoring the displacement of fluorescent microspheres. Cell seeded collagen gels were prepared as described above with the addition of a suspension of fluorescent 4 μm microspheres to achieve a concentration of 5 million microspheres/mL. Approximately, 500 μL of this solution were then carefully added around a 6 mm polydimethysiloxane (PDMS) post in a circular PDMS mold with a 20 mm diameter attached to a 35 mm glass bottom Petri dish. This construct was prepared with the purpose of preventing movement of the gel during imaging, after release. Gels were then incubated at 37° C. for 30 minutes to allow polymerization. Once the gels had polymerized, DMEM supplemented with 10% FBS, 1% Penicillin/Streptomyocin, and 0.1% Amphoterecin B was added. After incubation for 24 hours, the gels were treated with either blebbistatin PLGA particles or with blank PLGA particles for 24 hours. Gels were carefully detached from the surrounding PDMS mold and were rinsed twice using DMEM. […] Microsphere displacements were quantified by use of a custom algorithm using digital image correlation to track the movement of individual particles from frame to frame.

[3] = Raman spectroscopy and differential scanning calorimetry of drug-loaded particles; format: physicochemical; conditions: Raman shifts and DSC melting point unchanged after loading
Procedure: Confocal Raman spectroscopy was used to characterize the distribution of blebbistatin in the PLGA nanoparticles. Spectra of pure blebbistatin, pure PLGA, blank nanoparticles, and blebbistatin loaded nanoparticles were produced with the 488 nm line of an Ar+ laser (Coherent, Inova 70, 30 mW). After autoalignment of the instrument, the laser beam was focused on the samples using an inverted optical microscope equipped with a 50× objective lens. Spectra were recorded between 80 cm^−1 to 1300 cm^−1 at high resolution. Spectra were spatially resolved at each pixel by passing the backscattered image of the Ar+ laser through a pinhole of diameter 100 μm onto a cooled CCD camera.
Differential scanning calorimetry was employed to analyze the solid state and thermal properties of the nanoparticles. Approximately 2 mg of either lyophilized blank PLGA nanoparticles or drug-loaded PLGA nanoparticles were weighed and hermetically sealed into aluminum pans. An empty aluminum pan was used as a reference. Sample were heated from 25° C. to 300° C. at a rate of 10° C./min under a stream of nitrogen gas flow to produce thermograms for extracting the transition temperature (Tc) and enthalpy of transition (AH).

[4] = system: rabbit joint capsule fibroblasts; test: Collagen gel compaction assay; format: cell-based; conditions: collagen gel seeded with rabbit joint capsule fibroblasts; final blebbistatin concentration 50 μg/mL, treated 24 hours, imaged up to 48 hours
Procedure: The effect of blebbistatin on rabbit joint capsule fibroblasts (RJCF) was analyzed using a collagen gel compaction assay. RJCFs between passage 4 and 9 were trypsinized using 0.1% trypsin/EDTA for 5 minutes at 37° C. and then the added trypsin was neutralized using DMEM containing 10% FBS. The cell suspension was centrifuged at 230 g for 5 minutes and resuspended in a desired volume of 10% FBS containing DMEM. The collagen gels loaded with RJCFs were prepared by mixing 10×PBS containing phenol red, 1N NaOH, rat tail collagen-I, and the cell suspension to give a final yield of 1×10^6 cells/mL and 2 mg/mL collagen. 500 μL of the collagen gel mixture was added to each well in a 24 well plate and allowed to gelate for 30 minutes in an incubator. After 30 minutes 500 μL of DMEM containing 10% FBS and 50 μg/mL ascorbic acid was added to each well and incubated for 24 hours. After 24 hours, 2.5 mg of blank and blebbistatin loaded nanoparticles dispersed in 50 μL of DMEM or 50 μL of pure drug dissolved in DMSO (1 mg/mL) or 50 μL DMSO or 50 μL PBS were added to each gel so that the final blebbistatin concentration was 50 μg/mL or a corresponding solvent volume for controls. […] Images were acquired at 0, 0.15, 0.5, 1, 2, 3, 4, 5, 6, 7, 24 and 48 hours, and the amount of compaction was measured with ImageJ.

Structure (SMILES): Cc1ccc2c(c1)C(=O)C1(O)CCN(c3ccccc3)C1=N2 (centres unmarked) [blebbistatin, Blebbistatin]
- RhoA, ROCK1 and ROCK2 gene expression (qPCR) [1]: initial increase in RhoA, ROCKI, and ROCK II genes treated with blebbistatin that then decrease to comparable levels as control
- fluorescent microsphere displacements (cell force generation) ([2]; cell-seeded collagen gels treated 24 hours, compared with control gels): significantly lower
- fibroblast morphology (time-lapse imaging) ([2]; fibroblasts in collagen gels, compared with untreated gels): more spherical fibroblasts
- stability of the drug after loading into the particles [3]: stable and no significant physical/chemical changes occurred
- gel area after compaction [4]: 87%±1%
